Data from US7615356B2, “Ion channel assay methods” (Vertex Pharmaceuticals (San Diego) LLC, priority 2000, dated 2009).
Entries after “also recorded” stand apart in the source; their conditions may differ. Like-named read-outs stand apart in the source and are kept apart here.

Experiments:
[1] = tested on: sodium channels in dorsal root ganglion (DRG) neurons; experiment: Dorsal root ganglion neuron assay, electrical stimulation at different external potassium; format: cell-based, rat; settings: before and after addition of 16 mM potassium
Description: We have developed a dorsal root ganglion (DRG) neuron assay on the electrical stimulation with optical detection platform that allows us to detect and quantify voltage dependent blockers of the sodium channels in these neurons. The DRG neurons were dissociated from neonatal rat pups and stained with FRET voltage sensing dyes. The neurons were then placed in the middle of the well on a 96 well plate and preincubated with varying concentrations of the test compound. Electrical stimulation was applied and the resulting response recorded by the plate reader. Dose response plots were then constructed for each compound tested. Increased levels of potassium were then added to depolarize the neurons and move more of the sodium channels into the inactivated state. […] This estimates the degree of voltage or state dependence for these compounds. […] As shown, the high potassium levels depolarize the cells. The compounds' block is voltage dependent, a type of use-dependent activity. […] This example illustrates also the use of this method with primary neurons.

Nav1.8 [2] = biological target: Nav1.8 (UniProt Q9Y5Y9); experiment: Paired-pulse train stimulation, recovery from block, cells expressing Nav1.8; settings: for IC50: approximate, from previous experiment
NaV4 sodium channel = format: cell-based; settings: HEK-293 NaV4; 33 V/cm, 10 ms/phase biphasic, 15 Hz burst for 1.5 seconds; read-out: estimated EC50 (Hill function fit)
Source text: For this experiment, electrical stimulation parameters were E=33 V/cm, 10 ms/phase biphasic stimulation, 15 Hz burst for 1.5 seconds.
To determine whether the present method is generally applicable to a wide range of different sodium channels, HEK-293 cells were stably transfected with another voltage dependent sodium channel, hereinafter referred to as NaV4. These cells were transfected, selected and loaded with FRET dyes as described in section VI and Example 8.

[3] = biological target: endogenous NaV channels of Chinese Hamster Ovary cells (Nav 1.2a) (Cricetulus griseus, UniProt A0A8C2MK62); experiment: Use-dependent block, repetitive electrical stimulation at 1 Hz, CHO cells; format: cell-based
[4] = biological target: potassium inward rectifier channel IRK1 (Rattus norvegicus, UniProt Q64273)
Nav 1.2a = Nav 1.2a (Rattus norvegicus, UniProt P04775, N209D); settings: published; cited from earlier work
[5] = biological target: voltage dependent sodium channel (NaV1) endogenously expressed in wild type CHO cells (Cricetulus griseus, UniProt A0A8C2MK62)
HL5 cardiac muscle cells = format: cell-based
N-type calcium channel = N-type calcium channel (Homo sapiens, UniProt Q00975); experiment: Hexyl oxonol assay for use-dependent blockers of CaV; format: cell-based; settings: 5 μM
Description: Assays can also be developed using fast membrane potential sensors, such as DISBAC6(3) and CC2-DMPE voltage-sensitive FRET probes, to detect use-dependent compounds for voltage-gated Ca targets. The following illustrative example is for an N-type calcium channel using hardware compatible with 96 well plates.
Prepare a solution of 2× CC2DMPE and DISBAC6(3) by Vortexing together 10 mM CC2DMPE (in DMSO) and 10 mM DISBAC6(3) (in DMSO) with an equivalent volume of 10% pluronic (in DMSO). Vortex in required amount of bath. Each cell plate will require 5 ml of this solution. Wash plate with a plate washer leaving a residual volume of 50 μl. Add 50 μL of 2× CC2DMPE to wells. Resulting concentrations of dyes will be 4 μM CC2-DMPE and 1.25 μM DISBAC6(3). Stain for 30 minutes in the dark at RT. The test compounds are prepared at 2× concentration in extracellular ringer solution and added to wells containing stained cells. Stimulation parameters such as stimulation frequency, pulse duration, stimulation voltage can be easily manipulated to elicit desired responses.
FIG. 40 illustrates an example of how a use-dependent compound such as mibefradil can be detected using this hexyl assay.

[6] = tested on: voltage-activated chloride and potassium channels of wild-type HEK-293 cells
Nav1.8 [7] = biological target: Nav1.8 (UniProt Q9Y5Y9); experiment: Induced spontaneous firing of Nav1.8 expressing cells, high-frequency monophasic pulses; format: cell-based
[8] = tested on: TTX-resistant Nav channels; settings: cited from earlier work
[9] = 1 Hz stimulation, 1st peak response
[10] = 1 Hz stimulation, 20th peak response
[11] = read-out: IC50 @ 1st peak, 1 Hz stimulation, 1st peak response
[12] = read-out: IC50 @ 20th peak, 1 Hz stimulation, 20th peak response

endogenous NaV channels of Chinese Hamster Ovary cells (Nav 1.2a), sequence (A0A8C2MK62 entry or part of it): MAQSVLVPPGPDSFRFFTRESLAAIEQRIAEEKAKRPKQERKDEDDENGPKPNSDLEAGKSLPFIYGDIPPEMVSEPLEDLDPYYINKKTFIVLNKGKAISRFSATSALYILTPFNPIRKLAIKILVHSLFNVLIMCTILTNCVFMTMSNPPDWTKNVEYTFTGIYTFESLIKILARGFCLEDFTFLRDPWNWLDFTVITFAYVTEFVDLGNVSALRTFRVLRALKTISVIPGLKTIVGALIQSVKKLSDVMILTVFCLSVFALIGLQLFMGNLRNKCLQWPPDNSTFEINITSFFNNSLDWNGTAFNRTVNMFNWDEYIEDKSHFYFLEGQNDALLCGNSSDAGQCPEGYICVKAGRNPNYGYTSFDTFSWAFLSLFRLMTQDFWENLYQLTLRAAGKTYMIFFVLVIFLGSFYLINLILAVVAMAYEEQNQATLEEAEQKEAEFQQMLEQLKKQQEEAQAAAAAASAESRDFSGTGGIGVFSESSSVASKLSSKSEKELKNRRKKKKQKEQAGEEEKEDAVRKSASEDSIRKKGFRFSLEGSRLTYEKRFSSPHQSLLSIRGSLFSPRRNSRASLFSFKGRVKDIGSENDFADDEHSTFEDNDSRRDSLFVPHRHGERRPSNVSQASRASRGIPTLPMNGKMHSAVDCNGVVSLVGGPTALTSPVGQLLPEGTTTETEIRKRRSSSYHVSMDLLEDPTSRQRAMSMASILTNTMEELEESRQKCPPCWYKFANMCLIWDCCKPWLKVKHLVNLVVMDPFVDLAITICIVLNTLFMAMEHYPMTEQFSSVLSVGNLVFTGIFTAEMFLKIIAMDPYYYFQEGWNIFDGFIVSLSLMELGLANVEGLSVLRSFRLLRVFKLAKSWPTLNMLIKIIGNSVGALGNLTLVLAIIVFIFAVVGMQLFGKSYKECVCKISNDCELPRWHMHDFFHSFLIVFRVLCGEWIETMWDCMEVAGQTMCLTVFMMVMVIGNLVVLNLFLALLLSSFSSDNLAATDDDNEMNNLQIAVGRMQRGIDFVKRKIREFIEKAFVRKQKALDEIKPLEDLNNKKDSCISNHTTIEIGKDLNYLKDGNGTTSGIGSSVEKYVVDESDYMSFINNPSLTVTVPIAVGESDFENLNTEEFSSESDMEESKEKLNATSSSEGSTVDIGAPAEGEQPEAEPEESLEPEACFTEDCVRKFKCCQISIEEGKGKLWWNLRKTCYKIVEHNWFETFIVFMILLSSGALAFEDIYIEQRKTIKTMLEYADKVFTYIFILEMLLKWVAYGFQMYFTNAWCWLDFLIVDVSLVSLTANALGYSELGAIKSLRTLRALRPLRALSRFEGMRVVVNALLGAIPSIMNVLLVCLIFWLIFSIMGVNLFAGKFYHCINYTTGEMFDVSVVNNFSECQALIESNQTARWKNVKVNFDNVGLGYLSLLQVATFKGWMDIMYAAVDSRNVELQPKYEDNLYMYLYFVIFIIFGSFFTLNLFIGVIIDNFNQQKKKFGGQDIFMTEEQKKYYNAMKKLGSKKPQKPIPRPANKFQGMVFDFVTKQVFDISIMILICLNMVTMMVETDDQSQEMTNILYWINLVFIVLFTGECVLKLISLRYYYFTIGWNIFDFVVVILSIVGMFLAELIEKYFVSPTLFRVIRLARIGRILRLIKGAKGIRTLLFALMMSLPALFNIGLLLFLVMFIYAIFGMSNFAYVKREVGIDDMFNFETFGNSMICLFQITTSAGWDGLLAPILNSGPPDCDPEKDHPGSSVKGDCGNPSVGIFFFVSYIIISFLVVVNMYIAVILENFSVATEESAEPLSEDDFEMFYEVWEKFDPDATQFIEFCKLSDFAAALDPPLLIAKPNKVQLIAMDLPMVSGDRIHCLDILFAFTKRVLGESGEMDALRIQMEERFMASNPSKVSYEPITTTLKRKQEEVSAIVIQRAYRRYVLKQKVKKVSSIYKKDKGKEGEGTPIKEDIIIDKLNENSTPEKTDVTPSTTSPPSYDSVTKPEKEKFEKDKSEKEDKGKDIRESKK
voltage dependent sodium channel (NaV1) endogenously expressed in wild type CHO cells, sequence (A0A8C2MK62 1-2006): as the sequence (A0A8C2MK62 entry or part of it) above
Nav 1.2a, sequence (P04775 whole entry N209D): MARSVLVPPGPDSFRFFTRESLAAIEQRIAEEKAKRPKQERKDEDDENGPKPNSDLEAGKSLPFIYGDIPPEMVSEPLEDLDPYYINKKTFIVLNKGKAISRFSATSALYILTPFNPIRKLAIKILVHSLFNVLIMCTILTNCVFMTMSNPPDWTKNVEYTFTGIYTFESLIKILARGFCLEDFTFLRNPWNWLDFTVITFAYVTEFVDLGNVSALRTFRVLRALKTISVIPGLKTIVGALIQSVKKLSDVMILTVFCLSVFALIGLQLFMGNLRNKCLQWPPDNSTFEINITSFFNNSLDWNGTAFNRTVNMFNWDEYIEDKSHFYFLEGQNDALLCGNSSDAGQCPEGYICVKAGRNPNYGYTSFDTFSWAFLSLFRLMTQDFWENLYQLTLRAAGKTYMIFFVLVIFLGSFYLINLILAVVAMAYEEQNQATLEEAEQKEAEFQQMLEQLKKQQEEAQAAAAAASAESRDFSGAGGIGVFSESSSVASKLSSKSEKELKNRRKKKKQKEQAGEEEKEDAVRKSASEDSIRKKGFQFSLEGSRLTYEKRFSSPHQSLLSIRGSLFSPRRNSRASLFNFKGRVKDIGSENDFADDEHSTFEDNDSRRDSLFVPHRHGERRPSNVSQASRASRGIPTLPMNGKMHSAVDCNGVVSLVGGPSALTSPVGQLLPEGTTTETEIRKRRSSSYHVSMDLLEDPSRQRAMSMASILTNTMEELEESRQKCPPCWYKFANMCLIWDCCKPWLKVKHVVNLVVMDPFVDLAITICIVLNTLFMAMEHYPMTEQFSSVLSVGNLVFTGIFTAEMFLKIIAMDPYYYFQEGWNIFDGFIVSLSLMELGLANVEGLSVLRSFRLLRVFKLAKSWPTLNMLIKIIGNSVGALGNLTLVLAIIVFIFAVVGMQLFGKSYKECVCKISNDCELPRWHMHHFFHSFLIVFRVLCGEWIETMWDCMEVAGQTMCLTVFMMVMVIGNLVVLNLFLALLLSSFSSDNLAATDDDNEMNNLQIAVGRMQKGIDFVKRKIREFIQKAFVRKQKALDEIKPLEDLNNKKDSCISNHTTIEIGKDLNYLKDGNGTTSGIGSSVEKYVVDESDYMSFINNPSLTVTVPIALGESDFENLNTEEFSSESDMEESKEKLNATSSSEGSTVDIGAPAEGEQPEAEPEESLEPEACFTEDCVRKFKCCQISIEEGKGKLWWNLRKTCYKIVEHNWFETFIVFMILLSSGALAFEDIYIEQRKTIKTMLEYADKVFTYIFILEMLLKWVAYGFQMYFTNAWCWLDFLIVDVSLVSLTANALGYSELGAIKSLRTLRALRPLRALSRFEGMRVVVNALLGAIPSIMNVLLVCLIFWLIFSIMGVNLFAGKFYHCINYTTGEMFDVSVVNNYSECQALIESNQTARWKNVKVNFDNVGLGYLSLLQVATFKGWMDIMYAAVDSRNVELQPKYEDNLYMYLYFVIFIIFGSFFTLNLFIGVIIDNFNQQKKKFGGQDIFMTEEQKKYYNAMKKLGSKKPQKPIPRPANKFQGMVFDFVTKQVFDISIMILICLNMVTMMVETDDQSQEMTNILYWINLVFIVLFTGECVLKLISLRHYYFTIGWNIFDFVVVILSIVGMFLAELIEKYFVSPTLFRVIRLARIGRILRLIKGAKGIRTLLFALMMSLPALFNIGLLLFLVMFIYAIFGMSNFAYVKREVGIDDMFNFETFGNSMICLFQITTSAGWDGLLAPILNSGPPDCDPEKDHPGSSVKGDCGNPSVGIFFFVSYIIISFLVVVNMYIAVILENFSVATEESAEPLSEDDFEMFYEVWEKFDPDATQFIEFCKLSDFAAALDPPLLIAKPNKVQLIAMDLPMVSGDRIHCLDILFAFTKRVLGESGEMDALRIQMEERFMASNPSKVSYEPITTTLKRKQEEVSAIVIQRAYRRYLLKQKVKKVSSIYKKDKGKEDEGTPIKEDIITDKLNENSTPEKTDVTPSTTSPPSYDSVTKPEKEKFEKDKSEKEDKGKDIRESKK
potassium inward rectifier channel IRK1, sequence (Q64273 whole entry): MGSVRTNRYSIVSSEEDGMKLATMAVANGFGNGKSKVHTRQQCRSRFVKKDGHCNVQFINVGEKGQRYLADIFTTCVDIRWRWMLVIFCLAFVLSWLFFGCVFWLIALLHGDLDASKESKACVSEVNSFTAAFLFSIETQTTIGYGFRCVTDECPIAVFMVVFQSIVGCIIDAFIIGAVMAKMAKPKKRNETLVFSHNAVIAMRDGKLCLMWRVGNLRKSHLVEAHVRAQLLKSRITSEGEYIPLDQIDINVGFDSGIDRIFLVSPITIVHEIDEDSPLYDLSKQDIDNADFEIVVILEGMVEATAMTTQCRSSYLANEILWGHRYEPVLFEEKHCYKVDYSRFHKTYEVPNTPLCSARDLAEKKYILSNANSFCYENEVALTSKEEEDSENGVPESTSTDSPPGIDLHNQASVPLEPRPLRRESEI

**Q.** Which EC50 (NaV3 sodium channel; read-out: EC50 (fit to dose-response curve), HEK-293 NaV3, 33 V/cm, 10 ms/phase biphasic, 15 Hz burst for 1.5 seconds) does the source give for CCCCNc1ccc(C(=O)OCCN(C)C)cc1 [tetracaine] here?
**A.** 11 µM

**Q.** What about the “shift of dose response curve after elevated potassium” value [1] of the same molecule?
**A.** leftward shifted

**Q.** And the “time to recover from use-dependent block” value (Nav1.8 [2]; 4 μM)?
**A.** approximately 1000 ms

**Q.** And the IC50 (Nav1.8 [2])?
**A.** ~4 µM

**Q.** What about the EC50 (NaV4 sodium channel) of the same molecule?
**A.** 35 µM

**Q.** What about the “UDI (1 Hz), ratio of IC50(1st response) over IC50(20th response)” value (“UDI (1 Hz), ratio of IC50(1st response)” for short) ([3]; 1 Hz for 20 seconds) of the same molecule?
**A.** 8.40

**Q.** And the “use-dependent block of endogenous NaV channels” value ([3]; 1 Hz for 20 seconds, in words)?
**A.** decreased ratio of last peak response over first peak response and more additional block than TTX and most

**Q.** What about the “Hill coeff. @ 1st peak” value [3, 9] of the same molecule?
**A.** 1.81

**Q.** And the “Hill coeff. @ 20th peak” value [3, 10]?
**A.** 0.66

**Q.** What about the IC50 [3, 11] of the same molecule?
**A.** 2.77 ± 1.23 µM

**Q.** What about the IC50 [3, 12] of the same molecule?
**A.** 0.33 ± 0.2 µM

**Q.** Which “voltage change during stimulation with block” value [4] does the source give for [Ba+2].[Cl-].[Cl-] [barium chloride] here?
**A.** no detectable voltage change

**Q.** With CCCCOc1cc(C(=O)NCCN(CC)CC)c2ccccc2n1 [dibucaine] as the molecule, how does the “UDI (1 Hz), ratio of IC50(1st response)” value ([3]; 1 Hz for 20 seconds) read?
**A.** 2.36

**Q.** What about the “Hill coeff. @ 1st peak” value [3, 9] of the same molecule?
**A.** 2.35

**Q.** What about the “Hill coeff. @ 20th peak” value [3, 10] of the same molecule?
**A.** 1.19

**Q.** And the IC50 [3, 11]?
**A.** 1.19 ± 0.22 µM

**Q.** What about the IC50 [3, 12] of the same molecule?
**A.** 0.51 ± 0.11 µM

**Q.** Which IC50 (Nav 1.2a) does the source give for Cc1cccc(C)c1OCC(C)N (centres unmarked) [mexiletine] here?
**A.** 21 to 533 µM

**Q.** And the “Hill coeff. @ 1st peak” value [3]?
**A.** 3.07

**Q.** And the “Hill coeff. @ 20th peak” value [3]?
**A.** 0.98

**Q.** What about the “UDI (1 Hz), ratio of IC50(1st response)” value [3] of the same molecule?
**A.** 2.59

**Q.** What about the IC50 ([3]; read-out: IC50 @ 1st peak) of the same molecule?
**A.** 58.1 ± 11 µM

**Q.** What about the IC50 ([3]; read-out: IC50 @ 20th peak) of the same molecule?
**A.** 22.5 ± 5.31 µM

**Q.** For NC1=N[C@H](O)[C@H]2[C@H]3O[C@]4(O)O[C@@H]([C@@H](O)[C@@]2(N1)[C@@H]4O)[C@]3(O)CO [TTX, tetrodotoxin], which EC50 (NaV3 sodium channel; read-out: EC50 (Hill function fit)) is on record?
**A.** 0.025 µM

**Q.** And the Hill coefficient [5]?
**A.** 1.47

**Q.** What about the “block of the effect of electrical stimulation” value [5] of the same molecule?
**A.** completely block

**Q.** What about the EC50 ([5]; read-out: EC50 (Hill function fit to dose response)) of the same molecule?
**A.** 0.009 µM

**Q.** And the “effect on the positive response” value (HL5 cardiac muscle cells)?
**A.** partially blocks

**Q.** And the “sustained signal above 50 V/cm” value (HL5 cardiac muscle cells)?
**A.** unaffected

**Q.** What about the “use-dependent block of endogenous NaV channels” value [3] of the same molecule?
**A.** only minor or no use-dependent block; also recorded: least use-dependent

**Q.** What does the source list for COC(=O)[C@@H]1[C@H]2C[C@H]3c4[nH]c5ccccc5c4CCN3C[C@@H]2CC[C@@H]1O [yohimbine]?
**A.** UDI (1 Hz), ratio of IC50(1st response) over IC50(20th response) ([3]; 1 Hz for 20 seconds): 5.67; Hill coeff. @ 1st peak [3, 9]: 2.05; IC50 ([3]; 1 Hz stimulation, 1st peak response, read-out: IC50 @ 1st peak): 26.7 ± 7.26 µM; Hill coeff. @ 20th peak [3, 10]: 0.99; IC50 ([3]; 1 Hz stimulation, 20th peak response, read-out: IC50 @ 20th peak): 4.7 ± 1.94 µM

**Q.** Which results are given for CN(C)CCC=C1c2ccccc2CCc2ccccc21 [amitriptyline]?
**A.** IC50 (Nav 1.2a): 5.5 µM; Hill coeff. @ 1st peak [3]: 2.65; Hill coeff. @ 20th peak [3]: 1.07; UDI (1 Hz), ratio of IC50(1st response) over IC50(20th response) [3]: 3.24; IC50 ([3]; read-out: IC50 @ 1st peak): 5.19 ± 1.57 µM; IC50 ([3]; read-out: IC50 @ 20th peak): 1.6 ± 0.38 µM

**Q.** Which “change in response lineshape” value (N-type calcium channel) does the source give for COCC(=O)O[C@]1(CCN(C)CCCc2nc3ccccc3[nH]2)CCc2cc(F)ccc2[C@@H]1C(C)C [mibefradil] here?
**A.** use-dependent block

**Q.** For CC[N+](CC)(CC)CC [TEA, Tetraethylammonium], which “effect on the negative voltage response” value [6] is on record?
**A.** partially blocks

**Q.** What does the source list for Nc1nnc(-c2cccc(Cl)c2Cl)c(N)n1 [lamotrigine]?
**A.** shift of dose response curve after elevated potassium [1]: leftward shifted; IC50 (Nav1.8 [2]): ~50 µM; effect on induced spontaneous firing (Nav1.8 [7]): gradually increased the interspike interval

**Q.** Which “firing rate in neuron slice preparation” value [8] does the source give for CCCCN1CCCCC1C(=O)Nc1c(C)cccc1C (centres unmarked) [Bupivacaine] here?
**A.** slower firing rate

**Q.** Which “firing rate in neuron slice preparation” value [8] does the source give for CCN(CC)CC(=O)Nc1c(C)cccc1C [Lidocaine] here?
**A.** slower firing rate

**Q.** What about the “use-dependent block of endogenous NaV channels” value [3] of the same molecule?
**A.** only minor or no use-dependent block

**Q.** And the “effect on induced spontaneous firing” value (Nav1.8 [7])?
**A.** gradually increased the interspike interval
